Measured values as given in ChEMBL document CHEMBL5465560, “Selectivity Literature for EUbOPEN Chemogenomic Library” (2024).
Substitutions are numbered along the chain they refer to.

Assays:
Conditions in all cases: at 1 µM
[1] = tested on: Receptor-type tyrosine-protein kinase FLT3 (Homo sapiens), P36888 [UNDEFINED MUTATION]; experiment: (§1) Selectivity interaction (KinomeScan (DiscoverX)) EUB0001079a FLT3
[2] = tested on: T1, Receptor-type tyrosine-protein kinase FLT3 (Homo sapiens), P36888 [R834Q]; experiment: as §1
T1 sequence (whole entry): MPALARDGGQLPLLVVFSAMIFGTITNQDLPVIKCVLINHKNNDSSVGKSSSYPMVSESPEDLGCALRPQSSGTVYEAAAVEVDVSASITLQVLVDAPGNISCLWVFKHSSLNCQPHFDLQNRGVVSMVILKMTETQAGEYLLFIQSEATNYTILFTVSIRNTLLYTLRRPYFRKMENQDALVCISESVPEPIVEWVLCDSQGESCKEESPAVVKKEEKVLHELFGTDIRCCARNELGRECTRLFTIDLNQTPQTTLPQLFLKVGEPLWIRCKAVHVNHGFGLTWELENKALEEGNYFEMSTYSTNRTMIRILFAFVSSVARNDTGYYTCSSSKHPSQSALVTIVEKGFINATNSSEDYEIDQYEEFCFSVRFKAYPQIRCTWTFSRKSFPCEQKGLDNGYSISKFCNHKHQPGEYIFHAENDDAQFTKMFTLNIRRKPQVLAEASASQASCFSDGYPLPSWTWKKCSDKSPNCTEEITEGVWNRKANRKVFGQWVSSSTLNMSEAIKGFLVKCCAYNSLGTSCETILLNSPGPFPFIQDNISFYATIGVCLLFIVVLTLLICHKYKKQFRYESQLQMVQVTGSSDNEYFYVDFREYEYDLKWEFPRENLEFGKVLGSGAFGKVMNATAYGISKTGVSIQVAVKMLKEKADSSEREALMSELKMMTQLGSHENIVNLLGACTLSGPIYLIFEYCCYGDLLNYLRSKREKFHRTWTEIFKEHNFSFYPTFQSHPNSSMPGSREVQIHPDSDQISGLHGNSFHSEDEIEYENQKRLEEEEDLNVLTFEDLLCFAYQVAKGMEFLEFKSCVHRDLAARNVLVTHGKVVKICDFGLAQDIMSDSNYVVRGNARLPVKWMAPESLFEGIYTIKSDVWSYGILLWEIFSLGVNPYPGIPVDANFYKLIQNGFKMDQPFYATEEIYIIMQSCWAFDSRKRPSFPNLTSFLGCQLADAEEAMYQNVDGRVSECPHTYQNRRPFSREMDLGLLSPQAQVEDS

[3] = tested on: T2, Receptor-type tyrosine-protein kinase FLT3 (Homo sapiens), P36888 [D835Y]; experiment: as §1
T2 sequence (whole entry): T1 sequence (whole entry) with Q834R, D835Y

[4] = tested on: T3, Receptor-type tyrosine-protein kinase FLT3 (Homo sapiens), P36888 [K663Q]; experiment: as §1
T3 sequence (whole entry): T1 sequence (whole entry) with K663Q, Q834R

[5] = biological target: Receptor-type tyrosine-protein kinase FLT3 (Homo sapiens) (UniProt P36888); experiment: as §1

Nc1cnc(N2CCc3cc(S(=O)(=O)Nc4c(F)cc(Cl)cc4F)cc(N4CCCC4=O)c32)nc1 [TP-020n] showed a % of control [1] of 92%, a % of control [2] of 77% and a % of control [3] of 100%. It also gave a % of control [4] of 97% and a % of control [5] of 81%.
